Values quoted from earlier work as cited in patent US20100317677A1, “Methods of Treating a Microbial Infection by Modulating RNase-L Expression and/or Activity” (priority 2007, published 2010).

Molecular target: T1, RNase-L (Homo sapiens, UniProt Q05823)
T1 sequence (Q05823 1-741): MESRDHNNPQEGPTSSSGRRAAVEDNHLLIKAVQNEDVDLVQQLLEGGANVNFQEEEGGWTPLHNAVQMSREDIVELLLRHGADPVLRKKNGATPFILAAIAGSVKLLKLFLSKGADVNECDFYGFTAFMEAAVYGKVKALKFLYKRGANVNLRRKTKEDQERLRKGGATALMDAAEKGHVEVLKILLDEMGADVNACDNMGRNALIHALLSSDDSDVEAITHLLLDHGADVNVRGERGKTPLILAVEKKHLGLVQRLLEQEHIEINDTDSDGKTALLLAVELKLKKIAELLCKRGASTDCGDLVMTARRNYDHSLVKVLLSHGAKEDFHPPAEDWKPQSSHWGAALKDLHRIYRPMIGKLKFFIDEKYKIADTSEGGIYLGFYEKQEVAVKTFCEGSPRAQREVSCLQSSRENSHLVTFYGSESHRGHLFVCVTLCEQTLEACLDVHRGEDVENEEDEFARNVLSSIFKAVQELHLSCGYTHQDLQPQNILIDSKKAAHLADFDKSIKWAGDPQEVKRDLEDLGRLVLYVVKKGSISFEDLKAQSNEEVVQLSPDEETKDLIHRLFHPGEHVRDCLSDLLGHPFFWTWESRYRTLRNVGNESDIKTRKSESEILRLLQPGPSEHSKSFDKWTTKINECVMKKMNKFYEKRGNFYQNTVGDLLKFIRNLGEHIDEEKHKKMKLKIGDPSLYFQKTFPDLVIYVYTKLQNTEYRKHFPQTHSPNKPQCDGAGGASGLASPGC
Settings: statement in words, cited from Thakur et al. 2007 and other literature

Effect on the activity of RNase-L: increases the activity of RNase-L
Substance: px5′A(2′p5′A)n [2-5A]
